Laboratory results reported in ChEMBL document CHEMBL1157625, “Design, synthesis and preliminary activity assay of 1,2,3,4-tetrahydroisoquinoline-3-carboxylic acid derivatives as novel Histone deacetylases (HDACs) inhibitors” (Bioorg Med Chem, 2010).

Columns and labels:
Histone deacetylase 8 = biological target: T1, Histone deacetylase 8 (Homo sapiens, UniProt Q9BY41)
T1 sequence (Q9BY41 whole entry): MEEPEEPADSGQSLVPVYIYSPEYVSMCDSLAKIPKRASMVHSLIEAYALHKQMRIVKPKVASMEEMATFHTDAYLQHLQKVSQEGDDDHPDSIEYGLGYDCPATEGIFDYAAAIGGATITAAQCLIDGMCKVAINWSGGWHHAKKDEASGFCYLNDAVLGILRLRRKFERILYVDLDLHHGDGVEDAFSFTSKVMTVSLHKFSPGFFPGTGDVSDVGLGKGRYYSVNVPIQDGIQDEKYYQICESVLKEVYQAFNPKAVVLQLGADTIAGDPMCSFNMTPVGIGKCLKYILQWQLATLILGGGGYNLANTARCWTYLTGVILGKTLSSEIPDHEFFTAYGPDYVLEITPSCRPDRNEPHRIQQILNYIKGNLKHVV
Description: Inhibition of HDAC8 expressed in Escherichia coli assessed as Boc-Lys (acetyl)-AMC substrate hydrolysis by fluorimetric assay

HL-60 = assay: Antiproliferative activity against human HL60 cells after 48 hrs by MTT assay; type: functional, cell-based; conditions: HL-60, 48 h
HCT-116 = assay: Antiproliferative activity against human HCT116 cells after 48 hrs by MTT assay; type: functional, cell-based; conditions: HCT-116, 48 h
SK-OV-3 = assay: Antiproliferative activity against human SKOV3 cells after 48 hrs by MTT assay; type: functional, cell-based; conditions: SK-OV-3, 48 h

IC50 (Histone deacetylase 8) | SMILES | also measured
3.62 µM | Cc1cccc(NC(=O)[C@@H]2Cc3ccc(OCC(=O)NO)cc3CN2)c1 | –
4 µM | Cc1ccccc1NC(=O)[C@@H]1Cc2ccc(OCC(=O)NO)cc2CN1C(=O)OC(C)(C)C | –
2.56 µM | CC(C)(C)OC(=O)N1Cc2cc(OCC(=O)NO)ccc2C[C@H]1C(=O)Nc1ccc(F)cc1 | –
3.54 µM | CCCCCNC(=O)[C@@H]1Cc2ccc(OCC(=O)NO)cc2CN1 | –
1.17 µM | CC(C)(C)OC(=O)N1Cc2cc(OCC(=O)NO)ccc2C[C@H]1C(=O)Nc1cccc(Cl)c1 | IC50 (HL-60): 960 µM; IC50 (HCT-116): 490 µM; IC50 (SK-OV-3): 680 µM
2.67 µM | CC(C)(C)OC(=O)N1Cc2cc(OCC(=O)NO)ccc2C[C@H]1C(=O)NCCc1ccccc1 | –
1.98 µM | CC(C)(C)OC(=O)N1Cc2cc(OCC(=O)NO)ccc2C[C@H]1C(=O)Nc1ccc(-c2ccccc2)cc1 | –
3.39 µM | Cc1ccc(NC(=O)[C@@H]2Cc3ccc(OCC(=O)NO)cc3CN2)c(C)c1 | –
3.78 µM | Cc1ccc(NC(=O)[C@@H]2Cc3ccc(OCC(=O)NO)cc3CN2C(=O)OC(C)(C)C)c(C)c1 | –
4.58 µM | CC(C)(C)NC(=O)[C@@H]1Cc2ccc(OCC(=O)NO)cc2CN1C(=O)OC(C)(C)C | –
1.29 µM | CC(C)(C)OC(=O)N1Cc2cc(OCC(=O)NO)ccc2C[C@H]1C(=O)Nc1ccccc1 | –
4.25 µM | CC(C)(C)OC(=O)N1Cc2cc(OCC(=O)NO)ccc2C[C@H]1C(=O)Nc1cccc2ccccc12 | –
1.65 µM | Cc1ccc(NC(=O)[C@@H]2Cc3ccc(OCC(=O)NO)cc3CN2C(=O)OC(C)(C)C)cc1 | –
5.57 µM | COc1ccc(NC(=O)[C@@H]2Cc3ccc(OCC(=O)NO)cc3CN2)cc1 | –
> 50 µM | O=C(COc1ccc2c(c1)CN1C(=O)N(c3ccccc3)C(=O)[C@@H]1C2)NO | –
1.06 µM | O=C(COc1ccc2c(c1)CN[C@H](C(=O)Nc1cccc3ccccc13)C2)NO | IC50 (HL-60): 980 µM; IC50 (HCT-116): 170 µM; IC50 (SK-OV-3): 750 µM
1.55 µM | CC(C)(C)OC(=O)N1Cc2cc(OCC(=O)NO)ccc2C[C@H]1C(=O)Nc1ccc(F)c(Cl)c1 | –

IC50 (Histone deacetylase 8) | SMILES | also measured
2.21 µM | O=C(COc1ccc2c(c1)CN[C@H](C(=O)Nc1ccc(-c3ccccc3)cc1)C2)NO | –
3.34 µM | O=C(COc1ccc2c(c1)CN[C@H](C(=O)Nc1ccc(F)c(Cl)c1)C2)NO | –
4.07 µM | O=C(COc1ccc2c(c1)CN[C@H](C(=O)NCCc1ccccc1)C2)NO | –
4.13 µM | Cc1ccccc1NC(=O)[C@@H]1Cc2ccc(OCC(=O)NO)cc2CN1 | –
8.21 µM | O=C(COc1ccc2c(c1)CN[C@H](C(=O)Nc1ccccc1)C2)NO | –
3.41 µM | CC(C)(C)OC(=O)N1Cc2cc(OCC(=O)NO)ccc2C[C@H]1C(=O)NCc1ccccc1 | –
3.02 µM | CCCCCNC(=O)[C@@H]1Cc2ccc(OCC(=O)NO)cc2CN1C(=O)OC(C)(C)C | –
3.23 µM | O=C(COc1ccc2c(c1)CN[C@H](C(=O)Nc1ccc(F)cc1)C2)NO | –
> 50 µM | O=C(COc1ccc2c(c1)CN1C(=O)N(c3ccc(-c4ccccc4)cc3)C(=O)[C@@H]1C2)NO | –
5.77 µM | CCCCCCNC(=O)[C@@H]1Cc2ccc(OCC(=O)NO)cc2CN1 | –
4.42 µM | CCCCCCNC(=O)[C@@H]1Cc2ccc(OCC(=O)NO)cc2CN1C(=O)OC(C)(C)C | –
3.82 µM | Cc1ccc(NC(=O)[C@@H]2Cc3ccc(OCC(=O)NO)cc3CN2)cc1 | –
5.1 µM | O=C(COc1ccc2c(c1)CN[C@H](C(=O)NCc1ccccc1)C2)NO | –
12.2 µM | CC(C)(C)NC(=O)[C@@H]1Cc2ccc(OCC(=O)NO)cc2CN1 | –
1.77 µM | Cc1cccc(NC(=O)[C@@H]2Cc3ccc(OCC(=O)NO)cc3CN2C(=O)OC(C)(C)C)c1 | –
1 µM | COc1ccc(NC(=O)[C@@H]2Cc3ccc(OCC(=O)NO)cc3CN2C(=O)OC(C)(C)C)cc1 | IC50 (HL-60): > 2120 µM; IC50 (HCT-116): 48 µM; IC50 (SK-OV-3): 420 µM
3.2 µM | O=C(COc1ccc2c(c1)CN[C@H](C(=O)Nc1cccc(Cl)c1)C2)NO | –

SMILES | IC50 (Histone deacetylase 8) | also measured
O=C(COc1ccc2c(c1)CN(C(=O)OCc1ccccc1)[C@H](C(=O)NCCc1ccccc1)C2)NO | 0.58 µM | IC50 (HL-60): > 2000 µM; IC50 (HCT-116): 370 µM; IC50 (SK-OV-3): > 2000 µM
